# Measured values published in the OPERA property sets (Mansouri et al. 2018).
SMILES,boiling point,melting point,further results
CCN1C(=O)CCC1=O,236 °C,26 °C,
O=[N+]([O-])c1cc(F)c(F)cc1F,194 °C,-11 °C,
FC(Cl)=C(F)Cl,21.1 °C,-130 °C,log10 vapour pressure (mmHg): 2.95
CC(C)(C)C#N,106 °C,15 °C,log10 vapour pressure (mmHg): 1.54
Cc1nn(C)c(OCC(=O)c2ccccc2)c1C(=O)c1ccc(Cl)cc1Cl,,112 °C,log10 vapour pressure (mmHg): -6.44
O=[PH](O)c1ccccc1,,84 °C,log10 BCF (fish): 0.78
CC(=O)OCCN(C)C,152 °C,,
CCCCCCCCCCCCCCCC(=O)OCCCC,,16.9 °C,
Nc1ccc(C(=O)O)cc1O,,213 °C,
CC(C)CS(=O)(=O)CC(C)C,265 °C,17 °C,
CC(C)CCOC(=O)c1ccccc1,261 °C,,log10 vapour pressure (mmHg): -0.848
S=C1SCCS1,307 °C,35 °C,
CCCCCCCCC(=O)OCCCCCCC,,-15.5 °C,
CCC(CO)CC(C)C (stereo unspecified),,,log10 vapour pressure (mmHg): -0.625
CCCCCCCC(=O)OCCC,226 °C,-46.2 °C,
CCC(Cl)C(C)Cl (stereo unspecified),139 °C,-77.3 °C,
Cc1ccc2ccc3ccc(C)nc3c2n1,,160 °C,
O=C(O)c1ccc(F)cc1,,185 °C,
IC(I)I,218 °C,119 °C,
c1ccc2[nH]ncc2c1,269 °C,148 °C,
CCCCCCCCCCCCCC[N+](C)(C)Cc1ccccc1,,,ready biodegradability: not readily biodegradable
O=C(O)CCCOc1ccc(Cl)cc1Cl,324 °C,118 °C,

SMILES,boiling point,melting point,further results
C=CC#N,77.3 °C,-83.5 °C,log10 Henry constant (atm·m³/mol): -3.86; log10 vapour pressure (mmHg): 2.04; ready biodegradability: readily biodegradable
COc1cccc2c(=O)c3c(n(C)c12)O[C@@H](C(C)C)C3,,119 °C,
C1CCN2C[C@@H]3C[C@@H](CN4CCCC[C@@H]34)[C@H]2C1,325 °C,30.5 °C,
CN(C)C(=O)Nc1ccc(F)cc1,,,log10 Koc (L/kg): 1.43
CNc1cnn(-c2cccc(C(F)(F)F)c2)c(=O)c1Cl,,184 °C,log10 Koc (L/kg): 3.28; log10 vapour pressure (mmHg): -7.54
CCC1(C)CC1,56.8 °C,-130 °C,
O=C(Nc1ccccc1)c1ccccc1I,,137 °C,log10 Koc (L/kg): 2.82
C=COCC(F)(F)F,42.5 °C,,
C#CC(C)(C)N,79.5 °C,18 °C,
CCCCCCCCCCCC(CCCCCCCC)c1ccccc1 (stereo unspecified),,17.9 °C,
CCCC(C)CO (stereo unspecified),149 °C,,log10 vapour pressure (mmHg): 0.283
N#CCNCC#N,,70 °C,log10 vapour pressure (mmHg): -2.47
CC(C(=O)O)c1ccc(C2CCC/C(=N\O)C2)cc1 (stereo unspecified),,178 °C,
COc1ccc(NC(C)=O)cc1N,,,ready biodegradability: not readily biodegradable
NCC(CC(=O)O)c1ccc(Cl)cc1 (stereo unspecified),,207 °C,
COP(=O)(O)OC,174 °C,,
O=C1CCc2ccccc2N1,,164 °C,
C=Cc1ccccc1C=C,,,ready biodegradability: not readily biodegradable
Nc1cccc(I)c1,,33 °C,
CCCCOC=O,106 °C,-91.5 °C,log10 vapour pressure (mmHg): 1.46
CCCN(CCC)C(=O)C(CCC(=O)O)NC(=O)c1ccccc1 (stereo unspecified),,144 °C,
CC#CCCCCCC,162 °C,,

SMILES,boiling point,melting point,further results
CC1(C)CC(N)CC(C)(C)N1,188 °C,17 °C,
O=C(c1ccccc1)c1ccc(O)cc1O,,144 °C,ready biodegradability: not readily biodegradable
Cc1ccc(C)nc1,157 °C,-16 °C,log10 Henry constant (atm·m³/mol): -5.06; log10 vapour pressure (mmHg): 0.526
COc1cccc(C)c1,176 °C,-47 °C,
Oc1cc(Cl)c(Cl)cc1Cl,247 °C,69 °C,log10 Koc (L/kg): 3.36; log10 vapour pressure (mmHg): -2.12; ready biodegradability: not readily biodegradable; log10 BCF (fish): 2.73
C=CC(=O)OCCN(CC)CC,,-60 °C,
CCC(CC)Nc1c([N+](=O)[O-])cc(C)c(C)c1[N+](=O)[O-],330 °C,56 °C,log10 Koc (L/kg): 3.7; log10 vapour pressure (mmHg): -4.52
CC(C)(C)N(CCO)CCO,,42 °C,
CC(CCl)OC(C)CCl (stereo unspecified),187 °C,-97 °C,log10 Koc (L/kg): 1.67; log10 vapour pressure (mmHg): -0.252; ready biodegradability: not readily biodegradable; log10 BCF (fish): 1.08; log10 biotransformation half-life (days) (fish): -1.07
CC(=O)c1cnccn1,,77 °C,
O=C(O)C1CCCCC1,232 °C,31.5 °C,
CCCC(CC)c1ccccc1 (stereo unspecified),209 °C,-55.4 °C,
C=CCCCc1ccccc1,201 °C,,
CCOC(=O)COC(=O)c1ccccc1C(=O)OCC,,,log10 Koc (L/kg): 2.54
COC(=O)COc1ccccc1,245 °C,245 °C,
CCC[C@](C)(O)CC,143 °C,,log10 vapour pressure (mmHg): 0.291
C1CC2OC2CC1C1CO1 (stereo unspecified),227 °C,,ready biodegradability: not readily biodegradable
OCCC(F)(F)F,99.5 °C,,
O=c1[nH]c(=O)n([C@H]2CC[C@@H](CO)O2)cc1Br,,180 °C,
Oc1ccc2c(O)cccc2c1,,138 °C,
C=CC=CC#N,136 °C,-60 °C,
